Measurements: patent US10674699B2, “Endophyte enhanced seedlings with increased pest tolerance” (priority 2006, dated 2020)

Legend:
[1] = tested on: Aspergillus fumigatus; test: Fungal growth in budmoth test vials with dietary rugulosin; type: cell-based; details: A. fumigatus-contaminated larvae; few vials with fungal growth at 100 and 150 μM
Experimental: Zeiraphera canadensis larvae (spruce budmoth) were collected from the wild near Sussex in mid June. They were immediately put in test vials and tested at rugulosin concentrations of 10, 50, 100 and 150 μM (75 per concentration). After seven days, surviving larvae were frozen and measured.
Many (60%) succumbed to fungal infections (Aspergillus fumigatus) and other unknown causes over the course of rearing. […] However, using the Wilcoxon matched-pairs signed-ranks test, the larvae fed 100 or 150 μM rugulosin in the diet were lighter than those fed the 10 μM rugulosin and control diets (p<0.10). Because of the high percentage of A. fumigatus-contaminated larvae in the experiment, an unanticipated result was the antifungal activity observed above 50 μM, few vials had fungal growth in the tests at 100 μM and 150 μM rugulosin.

[2] = tested on: C. fumiferana (spruce budworm) larvae; test: Budworm growth on endophyte-infected nursery trees (mesh bags); type: in vivo, Choristoneura fumiferana; details: four year old trees, branches above and below 0.5 μg g^−1
Description: disease-free second instar spruce budworm larvae as follows: A set number of budworm were placed by hand on lateral branches with buds and then covered with a mesh screen on both endophyte-positive and negative trees. Temperature recorders were placed in the holding area and the progress monitored until the budworm was not greater than sixth instar. At termination, the insects were collected, frozen for subsequent determinations of head capsule width and frozen weight. Samples were collected for toxin analysis to ensure that there was no misclassification of the trees as to their endophyte status.
Nursery experiments: The tests were conducted at the J.D. Irving, Limited Sussex Tree Nursery in New Brunswick, Canada (45° 43′ N, 65° 31′ W; elevation 21.30 m). In two successive years, several hundred seedlings grown as container stock in mulitpot 67 seedling containers were inoculated with the rugulosin-producing endophyte 5WS22E1 (DAOM 229536; CBS 120377). […]
Temperature recorders (Hobo Dataloggers, Onset Computer Corporation, Pocasset, Mass.) were placed in the holding area and the progress monitored until the budworms were not older than sixth instars. […] Head capsule widths were determined using a stereo microscope at 40× with ocular and stage micrometers. […]

[3] = tested on: fruit flies (Drosophila melanogaster); details: Dobias et al. 1980; cited from earlier work
[4] = tested on: ovarian cells of the fall armyworm, Spodoptera frugiperda; details: Watts et al. 2003; cited from earlier work
[5] = tested on: mosquito larvae (Aedes albopictus) cell line; details: Watts et al. 2003; cited from earlier work
[6] = tested on: rats; details: in rats; Ueno et al. 1971; cited from earlier work
[7] = tested on: Gram positive and negative bacteria; details: reported by many authors, e.g. Stark et al. 1978; cited from earlier work
[8] = Breen et al. 1955; cited from earlier work
[9] = tested on: spruce budworm larvae; details: Miller et al. 2002; cited from earlier work

Cc1cc(O)c2c(c1)C(=O)[C@]13C(=C2O)C(=O)[C@@H]2[C@H](O)[C@H]1[C@@H]1[C@@H](O)[C@H]3C(=O)C3=C(O)c4c(O)cc(C)cc4C(=O)[C@]312 [rugulosin]
rugulosin concentration above which antifungal activity was observed [1]: above 50 μM
Pearson correlation between rugulosin concentration and budworm weight [2]: −0.288
dietary toxicity of rugulosin [3]: ~50 µM
toxicity to Drosophila melanogaster [3]: toxic
toxicity to cultured cells [4]: toxic
toxicity to cultured cells [5]: toxic
LD50 [6]: 44 mg kg^−1 BW
antibiotic activity [7]: antibiotic
antifungal activity [8]: moderately antifungal
toxicity to C. fumiferana larvae in needles [9]: toxic
